Reference: ChEMBL document CHEMBL6134887, “Linker and Head-Group Exploration of Anti-MRSA Triaromatic Pleuromutilins” (J Med Chem, 2025)
Values after ≈ are worked out from the molar mass of the structure shown.

Assays:
Staphylococcus aureus [1] = assay: Antibacterial activity against methicillin resistant Staphylococcus aureus clinical isolate 55508 assessed as inhibition of bacterial growth incubated for 20 to 24 hrs by microbroth serial dilution method; format: functional; settings: time 20-24 hrs, read-out: MIC100
Staphylococcus aureus [2] = assay: Antibacterial activity against methicillin susceptible Staphylococcus aureus ATCC 25923 assessed as inhibition of bacterial growth incubated for 20 to 24 hrs by microbroth serial dilution method; format: functional; settings: time 20-24 hrs, read-out: MIC100
Staphylococcus aureus [3] = assay: Antibacterial activity against mupirocin resistant Staphylococcus aureus 4828 assessed as inhibition of bacterial growth incubated for 20 to 24 hrs by microbroth serial dilution method; format: functional; settings: time 20-24 hrs, read-out: MIC100
Staphylococcus aureus [4] = assay: Antibacterial activity against methicillin susceptible Staphylococcus aureus ATCC 29213 assessed as inhibition of bacterial growth incubated for 20 to 24 hrs by microbroth serial dilution method; format: functional; settings: time 20-24 hrs, read-out: MIC100
[5] = Metabolic stability in mouse liver microsomes assessed as half-life at 1 uM measured up to 60 mins by LC-MS/MS analysis; format: ADME, Microsome
Staphylococcus aureus [6] = assay: Antibacterial activity against methicillin resistant Staphylococcus aureus clinical isolate 933010 assessed as inhibition of bacterial growth incubated for 20 to 24 hrs by microbroth serial dilution method; format: functional; settings: time 20-24 hrs, read-out: MIC100
[7] = Metabolic stability in mouse liver assessed as intrinsic clearance at 1 uM measured up to 60 mins by LC-MS/MS analysis; format: ADME, tissue-based; settings: read-out: CLH
Staphylococcus aureus [8] = assay: Antibacterial activity against methicillin resistant Staphylococcus aureus clinical isolate 52518 assessed as inhibition of bacterial growth incubated for 20 to 24 hrs by microbroth serial dilution method; format: functional; settings: time 20-24 hrs, read-out: MIC100
[9] = Metabolic stability in human liver assessed as intrinsic clearance at 1 uM measured up to 30 mins by LC-MS/MS analysis; format: ADME, tissue-based; settings: read-out: CLH
Staphylococcus aureus [10] = assay: Antibacterial activity against methicillin resistant Staphylococcus aureus USA300 FPR3757 assessed as inhibition of bacterial growth incubated for 20 to 24 hrs by microbroth serial dilution method; format: functional; settings: time 20-24 hrs, read-out: MIC100
DU-145 = assay: Cytotoxicity against human DU-145 cells assessed as reduction in cell viability at 1 to 10 uM measured after 3 hrs by Celltiter-Glo reagent based assay; format: toxicity; settings: du-145, 3 h, dose 1-10 µM
Caco-2 = assay: Cytotoxicity against human Caco-2 cells assessed as reduction in cell viability at 1 to 10 uM measured after 1 to 8 days by Celltiter-Glo reagent based assay; format: toxicity; settings: caco-2, 10 µM, dose lower 1 µM, time lower 1 day, dose upper 10 µM, time upper 8 day
Enterococcus faecalis = assay: Antibacterial activity against Enterococcus faecalis assessed as inhibition of bacterial growth incubated for 20 to 24 hrs by microbroth serial dilution method; format: functional; settings: time 20-24 hrs, read-out: MIC100
Streptococcus pneumoniae = assay: Antibacterial activity against Streptococcus pneumoniae assessed as inhibition of bacterial growth incubated for 20 to 24 hrs by microbroth serial dilution method; format: functional; settings: time 20-24 hrs, read-out: MIC100
Enterococcus faecium [11] = assay: Antibacterial activity against vancomycin, ampicillin and ciprofloxacin resistant Enterococcus faecium clinical isolate 5 assessed as inhibition of bacterial growth incubated for 20 to 24 hrs by microbroth serial dilution method; format: functional; settings: time 20-24 hrs, read-out: MIC100
[12] = Metabolic stability in human liver microsomes assessed as half-life at 1 uM measured up to 30 mins by LC-MS/MS analysis; format: ADME, Microsome
MDCK-MDR1 = assay: Cytotoxicity against MDCKII-MDR1 cells assessed as reduction in cell viability at 1 to 10 uM measured after 3 hrs by Celltiter-Glo reagent based assay; format: toxicity, Canis lupus familiaris; settings: dog, mdck-mdr1, 3 h, dose 1-10 µM
Enterococcus faecium [13] = assay: Antibacterial activity against vancomycin, ampicillin and ciprofloxacin resistant Enterococcus faecium clinical isolate 1 assessed as inhibition of bacterial growth incubated for 20 to 24 hrs by microbroth serial dilution method; format: functional; settings: time 20-24 hrs, read-out: MIC100

`C=C[C@]1(C)C[C@@H](OC(=O)Cn2cc(-c3ccc(Cn4cnc5c(N)ncnc54)cc3)nn2)[C@]2(C)[C@H](C)CC[C@]3(CCC(=O)[C@H]32)[C@@H](C)[C@@H]1O` showed an MIC (Staphylococcus aureus [1]) of 0.06 µg/mL (≈ 0.0919 µM), an MIC (Staphylococcus aureus [2]) of 0.06 µg/mL (≈ 0.0919 µM) and an MIC (Staphylococcus aureus [3]) of 0.06 µg/mL (≈ 0.0919 µM). The MIC (Staphylococcus aureus [4]) was 0.03 µg/mL (≈ 0.046 µM), the half-life at 1 µM [5] was less than 0.5 min and the MIC (Staphylococcus aureus [6]) was 0.25 µg/mL (≈ 0.383 µM). The CLint scaled at 1 µM [7] was greater than 10000 mL/min/kg and the MIC (Staphylococcus aureus [8]) was 0.03 µg/mL (≈ 0.046 µM).
In the case of `C=C[C@]1(C)C[C@@H](OC(=O)Cn2cc(-c3cccc(Nc4cc(N)ncn4)c3)nn2)[C@]2(C)[C@H](C)CC[C@]3(CCC(=O)[C@H]32)[C@@H](C)[C@@H]1O`, the MIC (Staphylococcus aureus [1]) is reported as 0.12 µg/mL (≈ 0.196 µM), the MIC (Staphylococcus aureus [2]) is reported as 0.25 µg/mL (≈ 0.407 µM) and the CLint scaled at 1 µM [9] is reported as 1580 mL/min/kg. The MIC (Staphylococcus aureus [3]) was 0.12 µg/mL (≈ 0.196 µM), the MIC (Staphylococcus aureus [10]) was 0.03 µg/mL (≈ 0.0489 µM) and the Activity (DU-145) was “Non-toxic”. For the same molecule, the MIC (Staphylococcus aureus [4]) was 0.015 µg/mL (≈ 0.0244 µM), the half-life at 1 µM [5] was 0.76 min and the Activity (Caco-2) was “Non-toxic”. It also gave an MIC (Enterococcus faecalis) of 0.5 µg/mL (≈ 0.815 µM), an MIC (Streptococcus pneumoniae) of 1 µg/mL (≈ 1.63 µM) and an MIC (Staphylococcus aureus [6]) of 0.12 µg/mL (≈ 0.196 µM). It also gave an MIC (Enterococcus faecium [11]) of 0.25 µg/mL (≈ 0.407 µM), a half-life at 1 µM [12] of 3.9 min and a CLint scaled at 1 µM [7] of 7240 mL/min/kg. For the same molecule, the MIC (Staphylococcus aureus [8]) was 0.06 µg/mL (≈ 0.0978 µM), the Activity (MDCK-MDR1) was “Non-toxic” and the MIC (Enterococcus faecium [13]) was 0.25 µg/mL (≈ 0.407 µM).
`C=C[C@]1(C)C[C@@H](OC(=O)Cn2cc(-c3cncc(C(=O)Nc4ccc(N)nc4)c3)nn2)[C@]2(C)[C@H](C)CC[C@]3(CCC(=O)[C@H]32)[C@@H](C)[C@@H]1O` gave an MIC (Staphylococcus aureus [10]) of 0.25 µg/mL (≈ 0.39 µM), a half-life at 1 µM [5] of 0.6 min and an MIC (Enterococcus faecalis) of 1 µg/mL (≈ 1.56 µM). The MIC (Streptococcus pneumoniae) was 1 µg/mL (≈ 1.56 µM), the MIC (Enterococcus faecium [11]) was 1 µg/mL (≈ 1.56 µM) and the CLint scaled at 1 µM [7] was 9100 mL/min/kg. It also gave an MIC (Enterococcus faecium [13]) of 1 µg/mL (≈ 1.56 µM).
For `C=C[C@]1(C)C[C@@H](OC(=O)Cn2cc(-c3ccc(Cn4ccnc4)nc3)nn2)[C@]2(C)[C@H](C)CC[C@]3(CCC(=O)[C@H]32)[C@@H](C)[C@@H]1O`, the CLint scaled at 1 µM [9] was 1000 mL/min/kg, the MIC (Staphylococcus aureus [10]) was 1 µg/mL (≈ 1.7 µM) and the half-life at 1 µM [5] was 2.4 min. It also gave a half-life at 1 µM [12] of 6.2 min and a CLint scaled at 1 µM [7] of 2340 mL/min/kg.
Molecule `C=C[C@]1(C)C[C@@H](OC(=O)CSC(C)(C)CNC(=O)[C@H](N)C(C)C)[C@]2(C)[C@H](C)CC[C@]3(CCC(=O)[C@H]32)[C@@H](C)[C@@H]1O` [VALNEMULIN] has an MIC (Staphylococcus aureus [1]) of 0.12 µg/mL (≈ 0.212 µM), an MIC (Staphylococcus aureus [2]) of 0.12 µg/mL (≈ 0.212 µM) and a CLint scaled at 1 µM [9] of less than 86 mL/min/kg. It also gave an MIC (Staphylococcus aureus [3]) of 0.06 µg/mL (≈ 0.106 µM), an MIC (Staphylococcus aureus [10]) of 0.06 µg/mL (≈ 0.106 µM) and an MIC (Staphylococcus aureus [4]) of 0.03 µg/mL (≈ 0.0531 µM). For the same molecule, the half-life at 1 µM [5] was 0.78 min, the MIC (Enterococcus faecalis) was 0.03 µg/mL (≈ 0.0531 µM) and the MIC (Streptococcus pneumoniae) was 0.06 µg/mL (≈ 0.106 µM). It also gave an MIC (Staphylococcus aureus [6]) of 0.25 µg/mL (≈ 0.443 µM), an MIC (Enterococcus faecium [11]) of 0.015 µg/mL (≈ 0.0266 µM) and a half-life at 1 µM [12] greater than 77.9 min. The CLint scaled at 1 µM [7] was 3530 mL/min/kg, the MIC (Staphylococcus aureus [8]) was 0.06 µg/mL (≈ 0.106 µM) and the MIC (Enterococcus faecium [13]) was 0.015 µg/mL (≈ 0.0266 µM).
With `C=C[C@]1(C)C[C@@H](OC(=O)Cn2cc(-c3cncc(NC(=O)c4cnc(OC)cn4)c3)nn2)[C@]2(C)[C@H](C)CC[C@]3(CCC(=O)[C@H]32)[C@@H](C)[C@@H]1O` the MIC (Staphylococcus aureus [1]) was 0.12 µg/mL (≈ 0.182 µM), the MIC (Staphylococcus aureus [2]) was 0.12 µg/mL (≈ 0.182 µM) and the CLint scaled at 1 µM [9] was 1090 mL/min/kg. For the same molecule, the MIC (Staphylococcus aureus [3]) was 0.12 µg/mL (≈ 0.182 µM), the MIC (Staphylococcus aureus [10]) was 0.06 µg/mL (≈ 0.0912 µM) and the Activity (DU-145) was “Non-toxic”. The MIC (Staphylococcus aureus [4]) was 0.06 µg/mL (≈ 0.0912 µM), the half-life at 1 µM [5] was 0.53 min and the Activity (Caco-2) was “Non-toxic”. The MIC (Enterococcus faecalis) was 0.12 µg/mL (≈ 0.182 µM), the MIC (Streptococcus pneumoniae) was 1 µg/mL (≈ 1.52 µM) and the MIC (Staphylococcus aureus [6]) was 0.12 µg/mL (≈ 0.182 µM). For the same molecule, the MIC (Enterococcus faecium [11]) was 0.06 µg/mL (≈ 0.0912 µM), the half-life at 1 µM [12] was 5.7 min and the CLint scaled at 1 µM [7] was greater than 10000 mL/min/kg. The MIC (Staphylococcus aureus [8]) was 0.06 µg/mL (≈ 0.0912 µM), the Activity (MDCK-MDR1) was “Non-toxic” and the MIC (Enterococcus faecium [13]) was 0.06 µg/mL (≈ 0.0912 µM).
`C=C[C@]1(C)C[C@@H](OC(=O)CS[C@@H]2CC[C@@H](N)C[C@H]2O)[C@]2(C)[C@H](C)CC[C@]3(CCC(=O)[C@H]32)[C@@H](C)[C@@H]1O` [LEFAMULIN] showed an MIC (Staphylococcus aureus [2]) of 0.12 µg/mL (≈ 0.236 µM), an MIC (Staphylococcus aureus [4]) of 0.25 µg/mL (≈ 0.492 µM) and a half-life at 1 µM [5] of 11.5 min. For the same molecule, the CLint scaled at 1 µM [7] was 478 mL/min/kg.
In the case of `C=C[C@]1(C)C[C@@H](OC(=O)Cn2cc(-c3cncc(NC(=O)c4ccc(OC)cc4)c3)nn2)[C@]2(C)[C@H](C)CC[C@]3(CCC(=O)[C@H]32)[C@@H](C)[C@@H]1O`, the CLint scaled at 1 µM [9] is reported as 3650 mL/min/kg, the MIC (Staphylococcus aureus [10]) is reported as 0.06 µg/mL (≈ 0.0915 µM) and the half-life at 1 µM [5] is reported as 0.56 min. For the same molecule, the half-life at 1 µM [12] was 1.7 min and the CLint scaled at 1 µM [7] was 9840 mL/min/kg.
With `C=C[C@]1(C)C[C@@H](OC(=O)Cn2cc(-c3cccc(NC(=O)c4ccc(OC)cc4)c3)nn2)[C@]2(C)[C@H](C)CC[C@]3(CCC(=O)[C@H]32)[C@@H](C)[C@@H]1O` the MIC (Staphylococcus aureus [10]) was 0.12 µg/mL (≈ 0.183 µM), the MIC (Enterococcus faecalis) was 0.5 µg/mL (≈ 0.764 µM) and the MIC (Streptococcus pneumoniae) was 0.25 µg/mL (≈ 0.382 µM). For the same molecule, the MIC (Enterococcus faecium [11]) was 0.25 µg/mL (≈ 0.382 µM) and the MIC (Enterococcus faecium [13]) was 0.12 µg/mL (≈ 0.183 µM).
